Test results: patent US20140011700A1 (Bristol-Myers Squibb Company, published 2014)

Columns and labels:
[1] = test system: H1N1 (A/SolomonIslands/3/2006); assay type: cell-based; details: read-out: A/Solomon-Islands/3/2006 (EC50)
[2] = test system: H3N2 (A/Brisbane/10/2007); assay type: cell-based
H1N1 (A/CA/07/2009) = assay type: cell-based
[3] = target: NP (nucleoprotein, A/WSN/33) (Influenza A virus, UniProt P15682)
A/WSN/33 = assay type: cell-based
[4] = target: Influenza A nucleoprotein (NP) (Influenza A virus (A/WSN/33, H1N1), UniProt P15682 P15682:8-498); assay: SPR; details: tags: N-terminal hexahistidine (pET28A), expressed in E. coli Rosetta II (DE3); label: 5'-biotin

Q: With COc1ccccc1-c1noc(C)c1C(=O)N1CCN(c2ccc([N+](=O)[O-])cc2Cl)CC1 [Compound B] as the molecule, how does the EC50 [1] read?
A: 660 ± 220 nM

Q: What about the EC50 [2] of the same molecule?
A: 7.31 ± 1.8 µM

Q: And the EC50 (H1N1 (A/CA/07/2009))?
A: > 20 µM

Q: And the “% Pd (polydispersity)” value [3]?
A: 10.2%

Q: And the “Rh (nm), hydrodynamic radius” value [3]?
A: 8.2 ± 0.3 nm

Q: Cc1cc(Br)cnc1N1CCN(C(=O)c2c(-c3ccccc3Cl)noc2C)CC1 [Compound D] was tested. Which EC50 [1] did it give?
A: 2800 ± 530 nM

Q: What about the EC50 [2] of the same molecule?
A: > 20 µM

Q: What about the EC50 (H1N1 (A/CA/07/2009)) of the same molecule?
A: > 20 µM

Q: And the EC50 (A/WSN/33)?
A: 1020 ± 1800 nM

Q: What about the “% Pd (polydispersity)” value [3] of the same molecule?
A: 13.5%

Q: What about the “Rh (nm), hydrodynamic radius” value [3] of the same molecule?
A: 8.9 ± 0.2 nm

B1: biotinylated 2'-O-methylated RNA oligonucleotide (ssRNA)
RNA: UAGAAACAAGGGUGUUUUUUCAGAUCUAUUAAACUUCACCCUGCUUUUGCU
modifications: 2'-OMe (stated as 2-O-methylated, positions not specified)
Q: How did the Kd [4] turn out when B1 was run?
A: 11.2 nM
